The text below walks through data of ChEMBL document CHEMBL1153537, “Structure-activity relationship and molecular mechanisms of ethyl 2-amino-4-(2-ethoxy-2-oxoethyl)-6-phenyl-4h-chromene-3-carboxylate (sha 14-1) and its analogues” (J Med Chem, 2009).

The subject of experiment [1] is Jurkat. As to the kind of experiment: Cytotoxicity against human Jurkat cells after 48 hrs by cell titer-blue assay. Format: functional, cell-based. Background: The colour change of resazurin is a common sign of viable cells or microbes.
A short description of experiment [2]: Cytotoxicity against human CCRF-CEM/C2 cells after 48 hrs by cell titer-blue assay. In kind it is functional, cell-based.
Experiment [3] can be described thus: Cytotoxicity against human HL60/MX2 cells after 48 hrs by cell titer-blue assay. In kind it is functional, cell-based. The following applies: HL60/MX2, 48 h.
Experiment [4] relates to CCRF-CEM. As to the kind of experiment: Cytotoxicity against human CCRF-CEM cells after 48 hrs by cell titer-blue assay. Format: functional, cell-based.
Experiment [5] deals with HL-60. As to the kind of experiment: Cytotoxicity against human HL60 cells after 48 hrs by cell titer-blue assay. Format: functional, cell-based. Conditions: HL-60, 48 h.
Experiment [6] is described as follows: Cytotoxicity against human SU-8686 cells after 48 hrs by cell titer-blue assay. Format: functional, cell-based. The following applies: SU.86.86, 48 h.
Experiment [7] is described as follows: Cytotoxicity against mouse Hepa-1c1c7 cells after 48 hrs by cell titer-blue assay. The following applies: Hepa-1c1c7, 48 h. Format: functional, cell-based.
Experiment [8] concerns DU-145. Nature of the experiment: Cytotoxicity against human DU145 cells after 48 hrs by cell titer-blue assay. In kind it is functional, cell-based. The following applies: DU-145, 48 h.
Experiment [9] concerns the target Induced myeloid leukemia cell differentiation protein Mcl-1 (Homo sapiens, UniProt Q07820). Nature of the experiment: Inhibition of recombinant His6-tagged MCL1 (171-326) expressed in Escherichia coli BL21 (DE3) and Flu-Bak peptide interaction by fluorescence polarization assay. (In fluorescence polarisation assays a small probe gives low polarisation when free and higher when bound to something large.)

The subject of experiment [10] is HCT-116. As to the kind of experiment: Cytotoxicity against human HCT116 cells after 48 hrs by cell titer-blue assay. Format: functional, cell-based. Conditions: HCT-116, 48 h.
The test system of experiment [11] is NALM-6. Nature of the experiment: Induction of apoptosis in human NALM6 cells assessed as caspase 3/7 activation at 0.4 to 100 uM after 24 hrs by fluorescence assay. Format: functional, cell-based.
In experiment [12] the test system is MCF7. As to the kind of experiment: Cytotoxicity against human MCF7 cells after 48 hrs by cell titer-blue assay. The following applies: MCF7, 48 h. Format: functional, cell-based.
In experiment [13] the test system is NALM-6. As to the kind of experiment: Cytotoxicity against human NALM6 cells after 48 hrs by cell titer-blue assay. Format: functional, cell-based.
Experiment [14] deals with NALM-6. Nature of the experiment: Induction of apoptosis in human NALM6 cells assessed as PARP cleavage at 3.125 to 25 uM after 24 hrs. Format: functional, cell-based.
Experiment [15] concerns NCI-H460. As to the kind of experiment: Cytotoxicity against human H460 cells after 48 hrs by cell titer-blue assay. The following applies: NCI-H460, 48 h. Format: functional, cell-based.
Experiment [16] concerns REH. Nature of the experiment: Cytotoxicity against human REH cells after 48 hrs by cell titer-blue assay. Format: functional, cell-based.
Experiment [17] has as its target Bcl-2-like protein 1 (Homo sapiens, UniProt Q07817). As to the kind of experiment: Inhibition of recombinant His6-tagged Bcl-XL expressed in Escherichia coli BL21 (DE3) and Flu-Bak peptide interaction by fluorescence polarization assay.
Experiment [18] relates to HL-60. Nature of the experiment: Ratio of GI50 for human HL60/MX2 cells to GI50 for human HL60 cells. In kind it is functional.
Experiment [19] has as its system NALM-6. Nature of the experiment: Induction of apoptosis in human NALM6 cells assessed as PARP cleavage at 50 uM after 24 hrs. In kind it is functional, cell-based.
Experiment [20] concerns CCRF-CEM. Nature of the experiment: Ratio of GI50 for human CCRF-CEM/C2 cells to GI50 for human CCRF-CEM cells. In kind it is functional.
The mark [21] stands for this setting: Homo sapiens, NALM-6, 48 h, read-out: IC50.
Where [22] appears, read: Homo sapiens, REH, 48 h, read-out: IC50.

Converted amounts (≈) assume the structure as drawn. The source made the active and inactive calls. The calls are words filed in the database; no cut-off is given here.

What is called IC50 is the concentration needed to halve the response being measured. The EC50 is the concentration that produces a half-maximal response. Low values mean an effect from little substance, high ones a need for much substance. The term Ki denotes a dissociation constant, usually derived from enzyme kinetics or from competition with a known ligand. A word on the GI50: it is the concentration at which growth is held to half of that of the control.

Induced myeloid leukemia cell differentiation protein Mcl-1, sequence (Q07820 whole entry): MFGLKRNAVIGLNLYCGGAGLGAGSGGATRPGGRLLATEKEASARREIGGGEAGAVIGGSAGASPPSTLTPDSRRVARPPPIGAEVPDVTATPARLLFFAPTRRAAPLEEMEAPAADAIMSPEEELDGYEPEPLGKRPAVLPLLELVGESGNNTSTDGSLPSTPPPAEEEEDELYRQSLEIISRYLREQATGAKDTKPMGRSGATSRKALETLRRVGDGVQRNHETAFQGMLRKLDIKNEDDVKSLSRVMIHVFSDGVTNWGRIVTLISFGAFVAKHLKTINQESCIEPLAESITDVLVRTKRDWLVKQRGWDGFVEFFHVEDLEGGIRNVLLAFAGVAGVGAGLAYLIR
Bcl-2-like protein 1, sequence (Q07817 whole entry): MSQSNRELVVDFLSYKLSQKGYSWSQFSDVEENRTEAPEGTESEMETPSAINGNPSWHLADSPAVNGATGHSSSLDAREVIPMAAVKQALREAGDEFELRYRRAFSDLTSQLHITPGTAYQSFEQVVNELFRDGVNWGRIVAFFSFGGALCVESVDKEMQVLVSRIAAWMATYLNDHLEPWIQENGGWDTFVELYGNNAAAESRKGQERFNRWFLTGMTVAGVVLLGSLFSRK

In experiment [1], `CCOC(=O)CC1C(C(=O)OCC)=C(N)Oc2ccc(-c3ccc4ccccc4c3)cc21` (centres undefined) came in with an IC50 of 18.7 µM.

In experiment [1], `CCOC(=O)CC1C(C(=O)OCC)=C(N)Oc2c(-c3ccccc3)cccc21` (centres undefined) had an IC50 of 49.8 µM.

Regarding `CCOC(=O)CC1C(C(=O)OCC)=C(N)Oc2ccc(-c3cccc4ccccc34)cc21` (centres undefined), the IC50 in experiment [1] was found to be 5.83 µM.

Regarding `CC[C@]1(O)C[C@H]2CN(CCc3c([nH]c4ccccc34)[C@@](C(=O)OC)(c3cc4c(cc3OC)N(C=O)[C@H]3[C@@](O)(C(=O)OC)[C@H](OC(C)=O)[C@]5(CC)C=CCN6CC[C@]43[C@@H]65)C2)C1` [VINCRISTINE], the EC50 turned out to be 0.367 µM in experiment [2], 0.0609 µM in [3] and 0.597 µM in experiment [4].

In turn, `CCOC(=O)CC1C(C(=O)OCC)=C(N)Oc2ccc(Br)cc21` (centres undefined) displayed an IC50 in [1] of 57.3 µM.

Take `CCOC(=O)CC1C(C(=O)OCC)=C(N)Oc2ccc(-c3cc(O)cc(O)c3)cc21` (centres undefined): the IC50 in experiment [1] was determined as 18.3 µM.

On to `CCOC(=O)CC1C(C(=O)OCC)=C(N)Oc2ccc(-c3cc(OC)c(OC)c(OC)c3)cc21` (centres undefined), for which, in [1], 13.6 µM corresponded to half-maximal inhibition (IC50).

Compound `CCCc1ccc2c(c1)C(CC(=O)OCC)C(C(=O)OCC)=C(N)O2` (centres undefined) displayed a half-maximal inhibitory concentration (IC50) in experiment [1] of 57.3 µM.

Take `COc1cccc2c1C(=O)c1c(O)c3c(c(O)c1C2=O)C[C@@](O)(C(=O)CO)C[C@@H]3O[C@H]1C[C@H](N)[C@H](O)[C@H](C)O1` [DOXORUBICIN]: the EC50 in experiment [2] was found to be 3.08 µM; in [3], 8.05 µM; in experiment [5], 1.51 µM; in experiment [4], 0.465 µM.

For the compound `CCOC(=O)CC1C(C(=O)OCC)=C(N)Oc2cccc(-c3ccccc3)c21` (centres undefined), the IC50 in experiment [1] was 44.3 µM.

In experiment [1], `CC(C)OC(=O)CC1C(C(=O)OC(C)C)=C(N)Oc2ccc(-c3ccccc3)cc21` (centres undefined) displayed an IC50 of 38.7 µM.

As to `CCOC(=O)C1=C(N)Oc2ccc(-c3ccccc3)cc2C1CC(=O)N(CC)CC` (centres undefined), inhibition in [1] was half-maximal at 49.6 µM (IC50).

Consider `CCOC(=O)CC1C(C(=O)OCC)=C(N)Oc2ccc(-c3cc(OC)cc(OC)c3)cc21` (centres undefined), for which the IC50 in experiment [6] worked out at 7.03 µM; in [7], 10.9 µM; in experiment [8], 11.5 µM; in experiment [1], 1.2 µM; in [10], 8.83 µM; in [12], 15.5 µM. Besides, the figures for the IC50 in experiment [13] (setting [21]), in experiment [15] and in experiment [16] (setting [22]) were 4.74 µM, 5.14 µM and 4.16 µM, respectively. Also, the Ki in experiment [9] is 42000 µM; in experiment [17] it was 1240 µM. Also, the Activity result in experiment [11] and in experiment [14] was “Dose-dependent effect” in each case.

In the case of `CN(C)CC[C@H](CSc1ccccc1)Nc1ccc(S(=O)(=O)NC(=O)c2ccc(N3CCN(Cc4ccccc4-c4ccc(Cl)cc4)CC3)cc2)cc1[N+](=O)[O-]` [ABT 737], the IC50 in [6] came out at 4.24 µM; in experiment [7] it was 8.68 µM; in [8], 27.6 µM; in experiment [1], 1.38 µM; in [10], 4.06 µM; in experiment [12], 21.3 µM. Also, the IC50 result in experiment [13] (nalm-6) is “Not Active”; in experiment [15] it was 8.03 µM; in experiment [16] (reh), “Not Active”.

Consider `CCOC(=O)CC1C(C(=O)OCC)=C(N)Oc2cc(-c3ccccc3)ccc21` (centres undefined), for which, in [1], it took 51.6 µM to reach half-maximal inhibition (IC50).

`CCOC(=O)CC1C(C(=O)OCC)=C(N(C(C)=O)C(C)=O)Oc2ccc(-c3ccccc3)cc21` (centres undefined) displayed a 50% inhibitory concentration (IC50) in experiment [1] of 70.6 µM.

Turning to `O=C1c2c(O)ccc(O)c2C(=O)c2c(NCCNCCO)ccc(NCCNCCO)c21` [MITOXANTRONE], the GI50 in experiment [3] amounted to 4.42 µg/mL (≈ 9.94 µM); in experiment [5] it was 0.192 µg/mL (≈ 0.432 µM). Moreover, the RatioGI50 in experiment [18] is given as 23.

Turning to `CCOC(=O)CC1C(C(=O)OCC)=C(N)Oc2ccc(-c3ccc(C(C)(C)C)cc3)cc21` (centres undefined), in experiment [1], 35.5 µM corresponded to half-maximal inhibition (IC50).

As for `CCOC(=O)CC1C(C(=O)OCC)=C(N)Oc2ccc(-c3ccccc3)cc21` (centres undefined), the IC50 in experiment [6] amounted to 18.7 µM; in experiment [7], 22.8 µM; in experiment [8] it was 14.7 µM; in experiment [10], 18.5 µM; in experiment [12] it was 18.9 µM; in experiment [13] (setting [21]), 44.2 µM. Also, the IC50 in [15] amounted to 15.5 µM; in [16] (setting [22]) it was 20.2 µM. Besides, the result in experiment [19] was inactive. Also, the Activity result in [11] is “Dose-dependent effect”. Further, the Ki in [17] turned out to be 344 µM.

As to `Nc1ccn([C@@H]2O[C@H](CO)[C@@H](O)[C@@H]2O)c(=O)n1` [CYTARABINE], the EC50 worked out at 0.0228 µM in experiment [2], 0.261 µM in experiment [3], 0.657 µM in [5] and 0.00561 µM in [4].

In the case of `CCOC(=O)C1=C(N)Oc2ccc(-c3ccccc3)cc2C1CC(=O)N1CCCCC1` (centres undefined), the midpoint of inhibition in experiment [1], the IC50, lay at 58.5 µM.

With `Nc1nc2[nH]cnc2c(=S)[nH]1` [THIOGUANINE], the EC50 amounted to 0.942 µM in experiment [2], 3.65 µM in [3], 3.9 µM in [5] and 0.87 µM in experiment [4].

For `CCOC(=O)CC1C(C(=O)OCC)=C(N)Oc2ccccc21` (centres undefined), in experiment [1], the IC50 is 91.4 µM.

As to `Cc1cc2c(C(C)C)c(O)c(O)c(C=O)c2c(O)c1-c1c(C)cc2c(C(C)C)c(O)c(O)c(C=O)c2c1O` [GOSSYPOL], in experiment [9], the Ki was 6.54 µM.

Regarding `CCOC(=O)CC1C(C#N)=C(N)Oc2ccc(-c3ccccc3)cc21` (centres undefined), the IC50 in experiment [1] worked out at 52.5 µM.

Consider `CCOC(=O)C1=C(N)Oc2ccc(-c3ccccc3)cc2C1CC(=O)N1CCNCC1` (centres undefined), for which half-maximal inhibition in experiment [1] (IC50) was put at 53.7 µM.

`CCOC(=O)CC1C(C(=O)OCC)=C(NC(C)=O)Oc2ccc(-c3ccccc3)cc21` (centres undefined): 67.7 µM corresponded to half-maximal inhibition in experiment [1] (IC50).

On to `CC[C@@]1(O)C(=O)OCc2c1cc1n(c2=O)Cc2cc3ccccc3nc2-1` [CAMPTOTHECIN], for which halving of growth in experiment [2] (GI50) required 0.0432 µM. Besides, the RatioGI50 in [20] is on record as 1879.

Consider `CCOC(=O)CC1C(C(=O)OCC)=C(N)Oc2ccc(-c3cc(O)cc(OC)c3)cc21` (centres undefined), for which, in experiment [1], the IC50 came to 4.2 µM.

As to `CCOC(=O)C1=C(N)Oc2ccc(-c3ccccc3)cc2C1CC(=O)N1CCOCC1` (centres undefined), the IC50 in [1] is over 100 µM.
